Patent US20240315299A1, “AMIDE COMPOUNDS AND THEIR USE AS FLAVOR MODIFIERS” (FIRMENICH INCORPORATED, priority 2021, published 2024)

Target: T1, T1R umami taste receptor (Homo sapiens, UniProt Q7RTX0+Q7RTX1)
T1 sequence (Q7RTX1 21-841): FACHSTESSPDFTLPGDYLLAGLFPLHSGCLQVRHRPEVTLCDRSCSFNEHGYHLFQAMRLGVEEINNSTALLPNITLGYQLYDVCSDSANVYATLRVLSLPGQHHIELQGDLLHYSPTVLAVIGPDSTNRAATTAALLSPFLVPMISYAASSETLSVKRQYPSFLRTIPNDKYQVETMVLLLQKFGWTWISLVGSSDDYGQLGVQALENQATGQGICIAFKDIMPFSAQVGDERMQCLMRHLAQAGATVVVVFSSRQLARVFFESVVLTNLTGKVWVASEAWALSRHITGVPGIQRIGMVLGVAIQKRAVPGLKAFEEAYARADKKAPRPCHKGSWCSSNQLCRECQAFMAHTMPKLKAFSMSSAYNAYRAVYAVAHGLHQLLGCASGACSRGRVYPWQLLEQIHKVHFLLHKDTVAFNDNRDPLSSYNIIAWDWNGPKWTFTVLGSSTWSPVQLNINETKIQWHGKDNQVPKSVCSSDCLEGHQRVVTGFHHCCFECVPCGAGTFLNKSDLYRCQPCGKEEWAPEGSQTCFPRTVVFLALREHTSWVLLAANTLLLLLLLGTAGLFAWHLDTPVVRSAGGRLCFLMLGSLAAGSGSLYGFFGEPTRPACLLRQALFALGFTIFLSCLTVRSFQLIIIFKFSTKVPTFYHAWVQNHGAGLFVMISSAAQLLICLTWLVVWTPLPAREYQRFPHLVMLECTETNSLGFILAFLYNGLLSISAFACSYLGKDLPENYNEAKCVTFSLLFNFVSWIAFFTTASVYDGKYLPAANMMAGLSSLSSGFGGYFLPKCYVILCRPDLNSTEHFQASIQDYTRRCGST
T1 sequence (Q7RTX0 21-852): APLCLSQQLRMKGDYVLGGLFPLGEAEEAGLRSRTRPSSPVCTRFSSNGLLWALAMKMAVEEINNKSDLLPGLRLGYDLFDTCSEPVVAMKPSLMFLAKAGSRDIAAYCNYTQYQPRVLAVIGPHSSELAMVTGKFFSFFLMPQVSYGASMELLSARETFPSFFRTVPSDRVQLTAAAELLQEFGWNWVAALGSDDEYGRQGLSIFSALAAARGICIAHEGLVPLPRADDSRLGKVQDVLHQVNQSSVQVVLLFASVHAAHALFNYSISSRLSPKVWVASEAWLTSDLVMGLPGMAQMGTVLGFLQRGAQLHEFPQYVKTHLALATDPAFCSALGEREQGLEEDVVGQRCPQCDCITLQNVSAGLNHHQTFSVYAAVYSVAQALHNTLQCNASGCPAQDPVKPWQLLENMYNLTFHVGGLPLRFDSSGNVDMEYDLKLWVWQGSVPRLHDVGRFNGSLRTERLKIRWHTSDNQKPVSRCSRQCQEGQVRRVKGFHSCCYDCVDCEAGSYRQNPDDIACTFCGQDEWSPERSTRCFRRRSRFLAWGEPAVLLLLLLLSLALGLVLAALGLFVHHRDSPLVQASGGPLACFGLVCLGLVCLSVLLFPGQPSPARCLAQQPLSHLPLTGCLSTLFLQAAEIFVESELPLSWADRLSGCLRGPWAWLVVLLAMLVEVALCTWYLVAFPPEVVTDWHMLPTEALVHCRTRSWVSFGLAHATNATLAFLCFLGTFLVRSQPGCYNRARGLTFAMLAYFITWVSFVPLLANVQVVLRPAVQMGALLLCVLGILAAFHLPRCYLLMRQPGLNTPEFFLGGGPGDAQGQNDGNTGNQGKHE
Assay: in vitro cell-based assay, enhancement of MSG binding at umami taste receptor
Conditions: cells that express the T1R umami taste receptor, from dose-binding curves
Experimental: Each of Compounds 101-135, as well as Compounds 168 and 169, (as set forth in Table 1) was synthesized according to one of the general procedures set forth above in Examples 1 to 4. Thereafter, the compounds were tested in an in vitro cell-based assay having cells that express the T1R umami taste receptor. Dose-binding curves were recorded and the EC50 was determined for enhancement of MSG binding. Table 2 sets forth the calculated EC50 values for certain tested compounds.

Point of comparison: `C/C=C(\C)C(=O)NCCCCNC(=O)c1ccc(C)cc1` [Compound 102], EC50 8 µM. Against it:
- CC(=O)NCCCCNC(=O)/C=C/c1ccccc1 [Compound 107] — higher, > 50 µM
- CC(=O)OC/C=C(\C)C(=O)NCCCCNC(=O)/C=C/c1ccccc1 [Compound 168, (E)-4-((4-cinnamamidobutyl)amino)-3-methyl-4-oxobut-2-en-1-yl acetate] — lower, < 1 µM
- O=C(/C=C/c1ccccc1)NCCCCNC(=O)/C=C/c1ccccc1 [Compound 122, (2E,2′E)-N,N′-(butane-1,4-diyl)bis(3-phenylacrylamide)] — higher, > 50 µM
- C/C=C(\C)C(=O)NCCCCNC(=O)/C=C/c1ccccc1OC [Compound 127, (E)-N-(4-((E)-3-(2-methoxyphenyl)acrylamido)butyl)-2-methylbut-2-enamide] — 4-fold lower, 2 µM
- C/C=C(\C)C(=O)NCCCCNC(=O)/C=C/c1ccc(OCC)cc1 [Compound 130, (E)-N-(4-((E)-3-(4-ethoxyphenyl)acrylamido)butyl)-2-methylbut-2-enamide] — lower, < 1 µM
- C/C(=C\CO)C(=O)NCCCCNC(=O)/C=C/c1ccccc1 [Compound 119, (E)-N-(4-cinnamamidobutyl)-4-hydroxy-2-methylbut-2-enamide] — not separable, < 12 µM
- C/C=C(\C)C(=O)NCCCCNC(=O)/C=C/c1ccc(OC)cc1OC [Compound 131, (E)-N-(4-((E)-3-(2,4-dimethoxyphenyl)acrylamido)butyl)-2-methylbut-2-enamide] — lower, < 1 µM
- CC(C)C(=O)NCCCCNC(=O)/C=C/c1ccccc1 [Compound 108] — higher, > 50 µM
- COc1ccc(C(=O)OC/C=C(\C)C(=O)NCCCCNC(=O)/C=C/c2ccccc2)cc1 [Compound 169, (E)-4-((4-cinnamamidobutyl)amino)-3-methyl-4-oxobut-2-en-1-yl 4-methoxy benzoate] — 2.9-fold higher, 23 µM
- O=C(/C=C/c1ccccc1)NCCCCNC(=O)c1ccccc1 [Compound 123, N-(4-cinnamamidobutyl)benzamide] — higher, > 50 µM
- O=C(/C=C/c1ccccc1)NCCCCNC(=O)c1ccc(O)cc1 [Compound 126, N-(4-cinnamamidobutyl)-4-hydroxybenzamide] — higher, > 50 µM
- C/C=C(/C)C(=O)NCCCCNC(=O)/C=C/c1ccccc1 [Compound 114] — higher, > 50 µM
- C/C=C(\C)C(=O)NCCCCNC(=O)/C=C/c1ccc(OC)cc1 [Compound 129, (E)-N-(4-((E)-3-(4-methoxyphenyl)acrylamido)butyl)-2-methylbut-2-enamide] — lower, < 1 µM
- CC/C=C(\C)C(=O)NCCCCNC(=O)/C=C/c1ccccc1 [Compound 118, (E)-N-(4-cinnamamidobuty1)-2-methylpent-2-enamide] — higher, > 50 µM
- C/C=C(\C)C(=O)NCCCCNC(=O)c1ccc(C)c(C)c1 [Compound 103] — lower, < 1 µM
- CC(C)=CC(=O)NCCCCNC(=O)/C=C/c1ccccc1 [Compound 116, N-(4-cinnamamidobutyl)-3-methylbut-2-enamide] — higher, > 50 µM
- C/C=C(\C)C(=O)NCCCCNC(=O)/C=C/c1ccc(OC)c(OC)c1 [Compound 132, (E)-N-(4-((E)-3-(3,4-dimethoxyphenyl)acrylamido)butyl)-2-methylbut-2-enamide] — 2-fold lower, 4 µM
- C/C=C(\C)C(=O)NCCCCNC(=O)c1ccc(OC)cc1 [Compound 105] — 1.5-fold higher, 12 µM
- C/C=C(\C)C(=O)NCCCCNC(=O)c1ccc2c(c1)OCO2 [Compound 106] — within 1.5-fold, 6 µM
- C/C=C(\C)C(=O)NCCCCNC(=O)c1cc(C)c(C)c(C)c1 [Compound 104] — 4-fold lower, 2 µM
- C/C=C(\C)C(=O)NCCCCNC(=O)/C=C/c1ccc(OC)c(O)c1 [Compound 134, (E)-N-(4-((E)-3-(3-hydroxy-4-methoxyphenyl)acrylamido)butyl)-2-methylbut-2-enamide] — higher, > 50 µM
- C/C=C(\C)C(=O)NCCCCNC(=O)/C=C/c1ccc2c(c1)OCO2 [Compound 133, (E)-N-(4-((E)-3-(benzo[d][1,3]dioxol-5-yl)acrylamido)butyl)-2-methylbut-2-enamide] — 2.5-fold higher, 20 µM
- CCC(C)C(=O)NCCCCNC(=O)/C=C/c1ccccc1 (stereo not shown) [Compound 109] — higher, > 50 µM
- C/C=C(\C)C(=O)NCCCCNC(=O)/C=C/c1ccccc1 [Compound 115, (E)-N-(4-cinnamamidobuty1)-2-methylbut-2-enamide] — lower, < 8 µM
- C/C=C(\C)C(=O)NCCCCNC(=O)/C=C/c1cccc(OC)c1 [Compound 128, (E)-N-(4-((E)-3-(3-methoxyphenyl)acrylamido)butyl)-2-methylbut-2-enamide] — 4-fold lower, 2 µM
- C/C=C(\C)C(=O)NCCCCNC(=O)/C=C/c1ccc(O)c(OC)c1 [Compound 135, (E)-N-(4-((E)-3-(4-hydroxy-3-methoxyphenyl)acrylamido)butyl)-2-methylbut-2-enamide] — higher, > 50 µM
- CC(C)=C(C)C(=O)NCCCCNC(=O)/C=C/c1ccccc1 [Compound 117, N-(4-cinnamamidobutyl)-2,3-dimethylbut-2-enamide] — higher, > 50 µM
